Active and inactive are the calls of the source. The rule behind the calls is not given here. Non-standard residues stand in square brackets, D forms with d. Residues, ends and D or L forms follow the SMILES beside them. Chg = N[C@H](C(=O)O)C1CCCCC1
How the values were obtained:
[1] = system: Mus musculus; assay: Effect on muscle growth in C57BL/6J mouse assessed as increase in tibialis anterior muscle weight at 20 nmol administered intramuscularly measured at day 28 relative to control; assay type: functional
[2] = molecular target: Growth/differentiation factor 8 (Homo sapiens) (UniProt O14793); assay: (§1) Inhibition of myostatin (unknown origin) expressed in HEK293 cells incubated for 4 hrs by dual luciferase reporter gene assay; assay type: cell-based
[3] = molecular target: T1, Growth/differentiation factor 8 (Homo sapiens, UniProt O14793); assay: as §1; assay type: cell-based
T1 sequence (O14793 whole entry): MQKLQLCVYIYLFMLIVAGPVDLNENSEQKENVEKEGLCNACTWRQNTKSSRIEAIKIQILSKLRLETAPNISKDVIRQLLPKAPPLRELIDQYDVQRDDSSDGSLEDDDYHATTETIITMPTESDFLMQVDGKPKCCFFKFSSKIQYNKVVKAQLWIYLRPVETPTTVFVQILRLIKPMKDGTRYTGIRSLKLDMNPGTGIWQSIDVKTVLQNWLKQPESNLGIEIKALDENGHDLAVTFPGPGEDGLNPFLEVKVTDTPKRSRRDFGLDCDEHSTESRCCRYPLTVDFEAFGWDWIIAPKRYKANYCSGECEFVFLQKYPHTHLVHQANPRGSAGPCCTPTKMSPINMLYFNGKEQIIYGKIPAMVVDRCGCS

[4] = system: HEK293; assay: Inhibition of activin A (unknown origin) expressed in HEK293 cells at 0.3 to 10 uM incubated for 4 hrs by dual luciferase reporter gene assay; assay type: cell-based; settings: Homo sapiens
[5] = molecular target: Transforming growth factor beta-1 proprotein (Homo sapiens) (UniProt P01137); assay: Inhibition of TGFbeta1 (unknown origin) expressed in HEK293 cells at 0.3 to 10 uM incubated for 4 hrs by dual luciferase reporter gene assay; assay type: cell-based
Chain of Transforming growth factor beta-1 proprotein (Homo sapiens) (P01137 279-390 limits assumed): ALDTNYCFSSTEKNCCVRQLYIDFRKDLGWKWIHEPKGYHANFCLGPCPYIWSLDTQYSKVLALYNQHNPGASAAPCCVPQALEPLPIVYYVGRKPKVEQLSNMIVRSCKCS

[6] = molecular target: Growth/differentiation factor 8 (Homo sapiens) (UniProt O14793); assay: Inhibition of myostatin (unknown origin) expressed in HEK293 cells at 10 uM incubated for 4 hrs by dual luciferase reporter gene assay; assay type: cell-based

inhibition [2]	IC50 [3]	inhibition [5]	inhibition [6]	SMILES	Activity [1]	inhibition [4]
Dose-dependent effect	6.2 µM	inactive	Active	CC[C@H](C)[C@H](NC(=O)[C@H](CCSC)NC(=O)[C@H](Cc1c[nH]c2ccccc12)NC(=O)[C@H](CCCCN)NC(=O)[C@H](Cc1ccccc1)NC(=O)[C@H](CC(C)C)NC(=O)[C@@H](NC(=O)[C@H](CC(N)=O)NC(=O)[C@H](CC(=O)O)NC(=O)[C@H](CC(N)=O)NC(=O)[C@@H](N)C(C)C)[C@@H](C)O)C(=O)N[C@@H](Cc1ccccc1)C(=O)N[C@@H](CC(N)=O)C(=O)NCC(N)=O (H-VNDNTLFKWMIFNG-NH2)	112%	inactive
	3.56 µM			CC[C@H](C)[C@H](NC(=O)[C@H](CCC(N)=O)NC(=O)[C@@H](NC(=O)[C@H](CCCCN)NC(=O)[C@@H](NC(=O)[C@@H](Cc1c[nH]c2ccccc12)NC(=O)[C@H](CCCNC(=N)N)NC(=O)[C@@H](NC(=O)[C@H](Cc1ccc(O)cc1)NC(=O)[C@@H](N)Cc1c[nH]c2ccccc12)[C@@H](C)CC)[C@@H](C)CC)C1CCCCC1)C(=O)N[C@@H](Cc1c[nH]c2ccccc12)C(=O)N[C@@H](CO)C(=O)N[C@@H](CCCCN)C(=O)N[C@H](C(=O)N[C@@H](CCCNC(=N)N)C(=O)N[C@@H](CC(C)C)C(N)=O)C1CCCCC1 (H-WYIR[dW]IK[Chg]QIWSK[Chg]RL-NH2)		

Source: ChEMBL document CHEMBL4610025, “Discovery of a follistatin-derived myostatin inhibitory peptide” (Bioorg Med Chem Lett, 2020)
